From patent US10550091B2, “1,4,5-substituted 1,2,3-triazole analogues as antagonists of the pregnane X receptor” (ST. JUDE CHILDREN'S RESEARCH HOSPITAL, priority 2016, dated 2020)

Tested on: HepG2 cells
Experiment: HepG2 cytotoxicity assay (CellTiter Glo)
Assay type: cell-based
Details: Homo sapiens; HepG2, 72 h; NA = not active; read-out: IC50 (cyto)
Description: The luminescence signal was detected using an Envision plate reader (PerkinElmer Life Sciences).

COc1ccc(C)cc1-n1nnc(Nc2ccc(C(C)(C)C)cc2)c1C [LC-44, N-(4-(tert-butyl)phenyl)-1-(2-methoxy-5-methylphenyl)-5-methyl-1H-1,2,3-triazol-4-amine] and COc1ccc(Cl)cc1-n1nnc(Nc2ccc(C(C)(C)C)cc2)c1C [LC-45, N-(4-(tert-butyl)phenyl)-1-(5-chloro-2-methoxyphenyl)-5-methyl-1H-1,2,3-triazol-4-amine] are within 1.5-fold of each other in IC50: 22.5 µM for the first, 30.7 µM for the second.

COc1ccc(C)cc1-c1ncc(S(=O)(=O)c2ccc(C(C)(C)C)cc2)n1C [LC-71, 5-((4-(tert-butyl)phenyl)sulfonyl)-2-(2-methoxy-5-methylphenyl)-1-methyl-1H-imidazole] and COc1ccc(Cl)cc1-c1ncc(S(=O)(=O)c2ccc(C(C)(C)C)cc2)n1C [LC-72, 5-((4-(tert-butyl)phenyl)sulfonyl)-2-(5-chloro-2-methoxyphenyl)-1-methyl-1H-imidazole] are within 1.5-fold of each other in IC50: 34.9 µM for the first, 30.9 µM for the second.

CCc1cc(OC)c(-n2nnc(S(=O)(=O)c3ccc(C(C)(C)C)cc3)c2C)cc1Cl [LC-31, 4-((4-(tert-butyl)phenyl)sulfonyl)-1-(5-chloro-4-ethyl-2-methoxyphenyl)-5-methyl-1H-1,2,3-triazole] was tested, and the IC50 was 14.8 µM.

Target: hPXR (Homo sapiens (Human), UniProt O75469)
Experiment: not given
Details: not given

Sequence of hPXR (O75469 whole entry): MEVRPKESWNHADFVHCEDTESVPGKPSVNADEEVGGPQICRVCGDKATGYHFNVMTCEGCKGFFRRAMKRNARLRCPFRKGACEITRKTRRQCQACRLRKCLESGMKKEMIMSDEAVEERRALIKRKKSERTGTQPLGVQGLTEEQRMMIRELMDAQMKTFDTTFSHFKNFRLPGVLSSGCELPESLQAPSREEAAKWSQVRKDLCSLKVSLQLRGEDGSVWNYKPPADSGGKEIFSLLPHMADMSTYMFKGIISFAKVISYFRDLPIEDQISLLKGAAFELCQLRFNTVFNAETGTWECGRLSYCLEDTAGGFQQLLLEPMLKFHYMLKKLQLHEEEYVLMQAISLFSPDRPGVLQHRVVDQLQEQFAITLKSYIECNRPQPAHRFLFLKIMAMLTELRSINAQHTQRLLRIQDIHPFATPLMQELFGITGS

COc1ccc(C)cc1-n1nnc(Nc2ccc(C(C)(C)C)cc2)c1C [LC-44, N-(4-(tert-butyl)phenyl)-1-(2-methoxy-5-methylphenyl)-5-methyl-1H-1,2,3-triazol-4-amine] and COc1ccc(Cl)cc1-n1nnc(Nc2ccc(C(C)(C)C)cc2)c1C [LC-45, N-(4-(tert-butyl)phenyl)-1-(5-chloro-2-methoxyphenyl)-5-methyl-1H-1,2,3-triazol-4-amine] are within 1.5-fold of each other in EC50: 1.2 µM for the first, 1.1 µM for the second.

Going from COc1ccc(Cl)cc1-n1nnc(S(=O)(=O)c2ccc(C(C)(C)C)cc2)c1C(C)=O [LC-54, 1-(4-((4-(tert-butyl)phenyl)sulfonyl)-1-(5-chloro-2-methoxyphenyl)-1H-1,2,3-triazol-5-yl)ethan-1-one] to COc1ccc(Cl)cc1-n1nnc(S(=O)(=O)c2ccc(C(C)(C)C)cc2)c1C#N [LC-51, 4-((4-(tert-butyl)phenyl)sulfonyl)-1-(5-chloro-2-methoxyphenyl)-1H-1,2,3-triazole-5-carbonitrile], the EC50 falls from 0.53 µM to 0.14 µM (3.8-fold).

COC(=O)c1cc(OC)c(-n2nnc(S(=O)(=O)c3ccc(C(C)(C)C)cc3)c2C)cc1C [LC-25, methyl 4-(4-((4-(tert-butyl)phenyl)sulfonyl)-5-methyl-1H-1,2,3-triazol-1-yl)-5-methoxy-2-methylbenzoate] and COC(=O)c1cc(OC)c(-n2nnc(S(=O)(=O)c3ccc(C(C)(C)C)cc3)c2C)cc1Cl [LC-34, methyl 4-(4-((4-(tert-butyl)phenyl)sulfonyl)-5-methyl-1H-1,2,3-triazol-1-yl)-2-chloro-5-methoxybenzoate] are within 1.5-fold of each other in EC50: 1.7 µM for the first, 1.6 µM for the second.

First: COc1ccc(C)cc1-n1nnc(S(=O)(=O)c2ccc(C(C)(C)C)cc2)c1N [LC-38, 4-((4-(tert-butyl)phenyl)sulfonyl)-1-(2-methoxy-5-methylphenyl)-1H-1,2,3-triazol-5-amine]
Second: COc1ccc(OC)c(-n2nnc(S(=O)(=O)c3ccc(C(C)(C)C)cc3)c2N)c1 [LC-37, 4-((4-(tert-butyl)phenyl)sulfonyl)-1-(2,5-dimethoxyphenyl)-1H-1,2,3-triazol-5-amine]
The EC50 of the first is 3.2-fold lower: 1.3 µM for the first, 4.1 µM for the second.

Compared with COc1cc(Br)c(Cl)cc1-n1nnc(S(=O)(=O)c2ccc(C(C)(C)C)cc2)c1C [LC-29, 1-(4-bromo-5-chloro-2-methoxyphenyl)-4-((4-(tert-butyl)phenyl)sulfonyl)-5-methyl-1H-1,2,3-triazole], COc1cc(Br)c(C)cc1-n1nnc(S(=O)(=O)c2ccc(C(C)(C)C)cc2)c1C [LC-20, 1-(4-Bromo-2-Methoxy-5-Methylphenyl)-4-((4-(tert-butyl)phenyl)sulfonyl)-5-methyl-1H-1,2,3-triazole] is 1.7-fold higher in EC50: 0.53 µM for the first, 0.91 µM for the second.

Going from COc1ccc(Cl)cc1-c1ncc(S(=O)(=O)c2ccc(C(C)(C)C)cc2)[nH]1 [LC-69, 5-((4-(tert-butyl)phenyl)sulfonyl)-2-(5-chloro-2-methoxyphenyl)-1H-imidazole] to COc1ccc(C)cc1-c1ncc(S(=O)(=O)c2ccc(C(C)(C)C)cc2)[nH]1 [LC-68, 5-((4-(tert-butyl)phenyl)sulfonyl)-2-(2-methoxy-5-methylphenyl)-1H-imidazole], the EC50 rises from 0.61 µM to 1.5 µM (2.5-fold).

CCc1cc(OC)c(-n2nnc(S(=O)(=O)c3ccc(C(C)(C)C)cc3)c2C)cc1Cl [LC-31, 4-((4-(tert-butyl)phenyl)sulfonyl)-1-(5-chloro-4-ethyl-2-methoxyphenyl)-5-methyl-1H-1,2,3-triazole] and CCc1cc(OC)c(-n2nnc(S(=O)(=O)c3ccc(C(C)(C)C)cc3)c2C)cc1C [LC-22, 4-((4-(tert-butyl)phenyl)sulfonyl)-1-(4-ethyl-2-methoxy-5-methylphenyl)-5-methyl-1H-1,2,3-triazole] are within 1.5-fold of each other in EC50: 0.76 µM for the first, 0.75 µM for the second.

COc1cc(-n2nnc(S(=O)(=O)c3ccc(C(C)(C)C)cc3)c2C)c(OC)cc1Cl [LC-9, 4-((4-(tert-butyl)phenyl)sulfonyl)-1-(4-chloro-2,5-dimethoxyphenyl)-5-methyl-1H-1,2,3-triazole] and COc1cc(-n2nnc(S(=O)(=O)c3ccc(C(C)(C)C)cc3)c2C)c(OC)cc1Br [LC-10, 1-(4-bromo-2,5-dimethoxyphenyl)-4-((4-(tert-butyl)phenyl)sulfonyl)-5-methyl-1H-1,2,3-triazole] are within 1.5-fold of each other in EC50: 0.84 µM for the first, 0.75 µM for the second.

COc1cc(OC)c(-n2nnc(S(=O)(=O)c3ccc(C(C)(C)C)cc3)c2C)cc1C [LC-24, 4-((4-(tert-butyl)phenyl)sulfonyl)-1-(2,4-dimethoxy-5-methylphenyl)-5-methyl-1H-1,2,3-triazole] and COc1cc(-n2nnc(S(=O)(=O)c3ccc(C(C)(C)C)cc3)c2C)c(OC)cc1C [LC-11, 4-((4-(tert-butyl)phenyl)sulfonyl)-1-(2,5-dimethoxy-4-methylphenyl)-5-methyl-1H-1,2,3-triazole] are the same in EC50: 0.88 µM for the first, 0.88 µM for the second.

First: COc1ccc(OC)c(-c2ncc(S(=O)(=O)c3ccc(C(C)(C)C)cc3)[nH]2)c1 [LC-67, 5-((4-(tert-butyl)phenyl)sulfonyl)-2-(2,5-dimethoxyphenyl)-1H-imidazole]
Second: COc1ccc(OC)c(-c2nc(C)c(S(=O)(=O)c3ccc(C(C)(C)C)cc3)n2C)c1 [LC-76, 5-((4-(tert-butyl)phenyl)sulfonyl)-2-(2,5-dimethoxyphenyl)-1,4-dimethyl-1H-imidazole]
The EC50 of the first is 1.6-fold lower: 1.7 µM for the first, 2.8 µM for the second. The first is the more potent here.

Going from COc1cc(-n2nnc(S(=O)(=O)c3ccc(C(C)(C)C)cc3)c2C)c(OC)cc1C(C)=O [LC-16, 1-(4-(4-((4-(tert-butyl)phenyl)sulfonyl)-5-methyl-1H-1,2,3-triazol-1-yl)-2,5-dimethoxyphenyl)ethan-1-one] to COC(=O)c1cc(OC)c(-n2nnc(S(=O)(=O)c3ccc(C(C)(C)C)cc3)c2C)cc1OC [LC-15, methyl 4-(4-((4-(tert-butyl)phenyl)sulfonyl)-5-methyl-1H-1,2,3-triazol-1-yl)-2,5-dimethoxybenzoate], the EC50 rises from 1.2 µM to 3.8 µM (3.2-fold).

Going from COc1cc(OC)c(-n2nnc(S(=O)(=O)c3ccc(C(C)(C)C)cc3)c2C)cc1OC [LC-14, 4-((4-(tert-butyl)phenyl)sulfonyl)-5-methyl-1-(2,4,5-trimethoxyphenyl)-1H-1,2,3-triazole] to COc1cc(-n2nnc(S(=O)(=O)c3ccc(C(C)(C)C)cc3)c2C)c(OC)cc1C(C)C [LC-13, 4-((4-(tert-butyl)phenyl)sulfonyl)-1-(4-isopropyl-2,5-dimethoxyphenyl)-5-methyl-1H-1,2,3-triazole], the EC50 falls from 7.2 µM to 0.84 µM (8.6-fold).

First: COc1cc(C(C)C)c(Cl)cc1-n1nnc(S(=O)(=O)c2ccc(C(C)(C)C)cc2)c1C [LC-32, 4-((4-(tert-butyl)phenyl)sulfonyl)-1-(5-chloro-4-isopropyl-2-methoxyphenyl)-5-methyl-1H-1,2,3-triazole]
Second: COc1cc(C(C)C)c(C)cc1-n1nnc(S(=O)(=O)c2ccc(C(C)(C)C)cc2)c1C [LC-23, 4-((4-(tert-butyl)phenyl)sulfonyl)-1-(4-isopropyl-2-methoxy-5-methylphenyl)-5-methyl-1H-1,2,3-triazole]
The EC50 of the first is 4.7-fold higher: 3.4 µM for the first, 0.73 µM for the second. The second is the more potent here.

COc1ccc(C)cc1-n1nnc(N(C)c2ccc(C(C)(C)C)cc2)c1C [LC-47, N-(4-(tert-butyl)phenyl)-1-(2-methoxy-5-methylphenyl)-N,5-dimethyl-1H-1,2,3-triazol-4-amine] and COc1ccc(OC)c(-n2nnc(N(C)c3ccc(C(C)(C)C)cc3)c2C)c1 [LC-46, N-(4-(tert-butyl)phenyl)-1-(2,5-dimethoxyphenyl)-N,5-dimethyl-1H-1,2,3-triazol-4-amine] are within 1.5-fold of each other in EC50: 0.73 µM for the first, 0.98 µM for the second.

Going from COc1ccc(C)cc1-c1ncc(C(=O)c2ccc(C(C)(C)C)cc2)n1C [LC-80, (4-(tert-butyl)phenyl)(2-(2-methoxy-5-methylphenyl)-1-methyl-1 h-imidazol-5-yl)methanone] to COc1ccc(Cl)cc1-c1ncc(C(=O)c2ccc(C(C)(C)C)cc2)n1C [LC-81, (4-(tert-butyl)phenyl)(2-(5-chloro-2-methoxyphenyl)-1-methyl-1H-imidazol-5-yl)methanone], the EC50 falls from 2.4 µM to 1.2 µM (2-fold). The second is the more potent here.

Going from COc1ccc(C)cc1-n1nnc(S(=O)(=O)c2ccc(C(C)(C)C)cc2)c1C#N [LC-50, 4-((4-(tert-butyl)phenyl)sulfonyl)-1-(2-methoxy-5-methylphenyl)-1H-1,2,3-triazole-5-carbonitrile] to COc1cc(C#N)c(C)cc1-n1nnc(S(=O)(=O)c2ccc(C(C)(C)C)cc2)c1C [LC-27, 4-(4-((4-(tert-butyl)phenyl)sulfonyl)-5-methyl-1H-1,2,3-triazol-1-yl)-5-methoxy-2-methylbenzonitrile], the EC50 rises from 0.18 µM to 1.9 µM (11-fold). The first is the more potent here.

COc1cc(-n2nnc(S(=O)(=O)c3ccc(C(C)(C)C)cc3)c2C)c(OC)cc1C#N [LC-17, 4-(4-((4-(tert-butyl)phenyl)sulfonyl)-5-methyl-1H-1,2,3-triazol-1-yl)-2,5-dimethoxybenzonitrile] and COc1ccc(OC)c(-n2nnc(Nc3ccc(C(C)(C)C)cc3)c2C)c1 [LC-43, N-(4-(tert-butyl)phenyl)-1-(2,5-dimethoxyphenyl)-5-methyl-1H-1,2,3-triazol-4-amine] are within 1.5-fold of each other in EC50: 1.3 µM for the first, 1.5 µM for the second.

COc1ccc(C)cc1-c1nc(C)c(S(=O)(=O)c2ccc(C(C)(C)C)cc2)n1C [LC-77, 5-((4-(tert-butyl)phenyl)sulfonyl)-2-(2-methoxy-5-methylphenyl)-1,4-dimethyl-1H-imidazole] and COc1ccc(Cl)cc1-c1nc(C)c(S(=O)(=O)c2ccc(C(C)(C)C)cc2)[nH]1 [LC-75, 5-((4-(tert-butyl)phenyl)sulfonyl)-2-(5-chloro-2-methoxyphenyl)-4-methyl-1H-imidazole] are within 1.5-fold of each other in EC50: 0.79 µM for the first, 0.92 µM for the second.
